Measurements from PMC7556346 (Cell chemical biology, 2020).
Entries after “also recorded” stand apart in the source; their conditions may differ. One block for each molecule: values may come before it.

Legend:
[1] = system: CTD110.6 antibody; assay: CTD110.6 antibody binding on glycopeptide microarrays
[2] = system: Wheat Germ Agglutinin (WGA); assay: Lectin binding on microarray; details: control glycans on the GP1 array; TSM binding buffer pH 7.4, 1 hr, room temperature

effect of free GlcNAc on CTD110.6 binding (hapten competition) ([1]; GP1 array, 20 mM GlcNAc): completely abolished
Molecule: CC(=O)N[C@H]1C(O)O[C@H](CO)[C@@H](O)[C@@H]1O (stereo partly drawn) [GlcNAc]

Molecule: CC(=O)N[C@H]1C(O)O[C@H](CO)[C@H](O)[C@@H]1O (stereo partly drawn) [GalNAc]
effect of free GalNAc on CTD110.6 non-specific binding (hapten) ([1]; GP2 array printed at 100 μM, 20 mM GalNAc): specificity can be restored; also recorded: can be prevented

binding of WGA to control glycans [2]: exhibited lectin binding with WGA
Molecule: chitin
